ChEMBL document CHEMBL5154670, “Discovery of selective irreversible inhibitors of B-Lymphoid tyrosine kinase (BLK)” (Eur J Med Chem, 2022)
Activity calls are given as the source filed them. The rule behind the calls is not given here.

Columns and labels:
Homo sapiens = species on record: Homo sapiens; test: Selectivity ratio, ratio of IC50 for inhibition of BTK (unknown origin) to IC50 for inhibition of BLK (unknown origin)
[1] = target: T1, Tyrosine-protein kinase Blk (Homo sapiens, UniProt P51451); test: Inhibition of wild type N-terminal GST tagged BLK (unknown origin) (1 to 505 residues) expressed in sf21 insect cell using TK as substrate incubated for 50 mins in presence of ATP by HTRF assay
Target sequence in this assay (P51451 whole entry, the tested form may be a part): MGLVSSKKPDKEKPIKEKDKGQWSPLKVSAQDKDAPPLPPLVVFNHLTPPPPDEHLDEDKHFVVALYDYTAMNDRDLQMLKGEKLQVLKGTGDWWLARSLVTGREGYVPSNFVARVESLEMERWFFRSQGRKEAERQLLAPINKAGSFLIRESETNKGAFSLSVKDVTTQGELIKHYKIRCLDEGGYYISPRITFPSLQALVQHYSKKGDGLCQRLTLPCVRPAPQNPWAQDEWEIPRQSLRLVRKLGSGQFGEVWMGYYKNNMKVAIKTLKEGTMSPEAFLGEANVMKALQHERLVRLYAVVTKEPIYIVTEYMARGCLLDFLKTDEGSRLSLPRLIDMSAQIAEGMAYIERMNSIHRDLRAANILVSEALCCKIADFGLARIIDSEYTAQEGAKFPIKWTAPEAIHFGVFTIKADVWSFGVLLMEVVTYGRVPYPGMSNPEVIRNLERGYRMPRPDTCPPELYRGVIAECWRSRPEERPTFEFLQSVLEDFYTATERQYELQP

[2] = target: Mitogen-activated protein kinase 14 (Homo sapiens) (UniProt Q16539); test: Inhibition of p38alpha (unknown origin) relative to control; details: concentration not given here
[3] = target: T1, Tyrosine-protein kinase Blk; test: (§1) Inhibition of (S)-3-(3-(5-acrylamido-6-(3-(5-(2-methyl-5-(3-(trifluoromethyl)benzamido)benzamido)pyrimidin-2-ylamino)phenylamino)-6-oxohexylamino)-3-oxopropyl)-5,5-difluoro-7,9-dimethyl-5H-dipyrrolo[1,2-c:1',2'-f][1,3,2]diazaborinin-4-ium-5-uide binding to BLK in human NAMALVA cells preincubated for 1 hr followed by compound washout for three times and treated with probe for 1 hr by competitive labeling assay; format: cell-based
Target sequence in this assay (P51451 whole entry, the tested form may be a part): as above

[4] = target: Tyrosine-protein kinase Lyn (Homo sapiens) (UniProt P07948); test: Inhibition of LYN (unknown origin) relative to control; details: concentration not given here
[5] = target: T2, Tyrosine-protein kinase BTK (Homo sapiens, UniProt Q06187); test: Inhibition of wild type N-terminal GST tagged BTK (unknown origin) (2 to 659 residues) expressed in sf21 insect cell using TK as substrate incubated for 50 mins in presence of ATP by HTRF assay
[6] = target: Tyrosine-protein kinase CSK (Homo sapiens) (UniProt P41240); test: Inhibition of CSK (unknown origin) relative to control; details: concentration not given here
[7] = target: T2, Tyrosine-protein kinase BTK; test: as §1, with “BTK” for “BLK”; format: cell-based
[8] = target: T2, Tyrosine-protein kinase BTK; test: Time dependent inhibition of wild type N-terminal GST tagged BTK (unknown origin) (2 to 659 residues) expressed in sf21 insect cell using TK as substrate in presence of ATP by HTRF assay; details: time 50.0 min, TDE = time-dependent effect
[9] = target: T1, Tyrosine-protein kinase Blk; test: as §1, with “to wild type” for “to”, “BLK over expressed” for “BLK”, “HEK293” for “human NAMALVA”; format: cell-based
Target sequence in this assay (P51451 2-505 limits assumed): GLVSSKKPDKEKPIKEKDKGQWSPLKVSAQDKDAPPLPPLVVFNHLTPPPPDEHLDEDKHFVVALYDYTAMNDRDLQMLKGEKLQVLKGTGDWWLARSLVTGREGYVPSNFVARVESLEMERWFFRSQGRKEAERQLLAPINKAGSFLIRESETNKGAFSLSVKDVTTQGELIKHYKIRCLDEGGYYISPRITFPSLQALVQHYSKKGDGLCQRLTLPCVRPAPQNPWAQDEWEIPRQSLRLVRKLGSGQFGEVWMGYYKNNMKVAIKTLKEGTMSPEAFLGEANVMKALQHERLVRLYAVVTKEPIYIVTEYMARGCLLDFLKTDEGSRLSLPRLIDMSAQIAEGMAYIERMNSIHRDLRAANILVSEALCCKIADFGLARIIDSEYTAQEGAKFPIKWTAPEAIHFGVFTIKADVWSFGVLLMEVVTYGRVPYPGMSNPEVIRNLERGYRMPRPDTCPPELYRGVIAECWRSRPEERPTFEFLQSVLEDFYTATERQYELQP

HEK293 = test: as §1, with “BLK C319A mutant over expressed” for “BLK”, “HEK293” for “human NAMALVA”; format: cell-based; details: Homo sapiens
[10] = target: T2, Tyrosine-protein kinase BTK; test: Inhibition of BTK (unknown origin) at 0.3 uM relative to control
Jurkat = test: Antiproliferative activity against human Jurkat cells assessed as cell growth inhibition incubated for 72 hrs by celltiter-glo luminescent cell viability assay; format: functional
[11] = target: T1, Tyrosine-protein kinase Blk; test: Inhibition of BLK in goat anti-human IgM antibody stimulated human Ramos cells assessed as BLK autophosphorylation at Tyr 389 residue at 0.3 uM preincubated for 1 hr followed by compound washout for 2 hrs and antibody stimulation by Western blot analysis; format: cell-based
Target sequence in this assay (P51451 2-505 limits assumed): as above

[12] = Downregulation of CDK2 expression in human SU-DHL-6 cells at 0.3 uM preincubated for 1 hr followed by compound washout for 11 hrs and further incubated for 1 hr with compound followed by second washout for 11hrs by Western blot analysis; format: functional; details: time 2 hrs
[13] = target: T1, Tyrosine-protein kinase Blk; test: Irreversible inhibition of wild type N-terminal GST tagged BLK (unknown origin) (1 to 505 residues) expressed in sf21 insect cell at 3 uM incubated for 4 hrs and measured after 48 hrs dialysis
Target sequence in this assay (P51451 2-505 limits assumed): as above

SU-DHL-6 [14] = test: Antiproliferative activity against human SU-DHL-6 cells assessed as cell growth inhibition incubated for 72 hrs by celltiter-glo luminescent cell viability assay; format: functional
TMD8 = test: Antiproliferative activity against human TMD8 cells assessed as cell growth inhibition incubated for 72 hrs by celltiter-glo luminescent cell viability assay; format: functional
SU-DHL-6 [15] = test: Downregulation of CDK2 expression in human SU-DHL-6 cells at 0.1 to 0.3 uM incubated for 24 hrs by Western blot analysis; format: functional, cell-based; details: dose 0.1-0.3 µM
[16] = target: Receptor tyrosine-protein kinase erbB-2 (Homo sapiens) (UniProt P04626); test: Inhibition of HER2 (unknown origin) at 0.3 uM relative to control
[17] = target: Epidermal growth factor receptor (Homo sapiens) (UniProt P00533); test: Inhibition of EGFR (unknown origin) at 0.3 uM relative to control
Pfeiffer = test: Antiproliferative activity against human Pfeiffer cells assessed as cell growth inhibition incubated for 72 hrs by celltiter-glo luminescent cell viability assay; format: functional
[18] = target: Tyrosine-protein kinase TXK (Homo sapiens) (UniProt P42681); test: Inhibition of TXK (unknown origin) at 0.3 uM relative to control
DOHH-2 [19] = test: Downregulation of CDK2 expression in human DOHH-2 cells at 0.1 to 0.3 uM incubated for 24 hrs by Western blot analysis; format: functional, cell-based; details: dose 0.1-0.3 µM
[20] = target: Receptor tyrosine-protein kinase erbB-4 (Homo sapiens) (UniProt Q15303); test: Inhibition of HER4 (unknown origin) at 0.3 uM relative to control
[21] = Antiproliferative activity against human PBMC cells assessed as cell growth inhibition incubated for 72 hrs by celltiter-glo luminescent cell viability assay; format: toxicity, cell-based
[22] = Antiproliferative activity against HEK293 cells assessed as cell growth inhibition incubated for 72 hrs by celltiter-glo luminescent cell viability assay; format: toxicity, cell-based; details: human
[23] = target: Tyrosine-protein kinase Tec (Homo sapiens) (UniProt P42680); test: Inhibition of TEC (unknown origin) at 0.3 uM relative to control
MDA-MB-453 = test: Antiproliferative activity against human MDA-MB-453 cells assessed as cell growth inhibition incubated for 72 hrs by celltiter-glo luminescent cell viability assay; format: functional
A-375 = test: Antiproliferative activity against human A-375 cells assessed as cell growth inhibition incubated for 72 hrs by celltiter-glo luminescent cell viability assay; format: functional
[24] = target: T2, Tyrosine-protein kinase BTK; test: Inhibition of BTK in goat anti-human IgM antibody stimulated human Ramos cells assessed as BTK autophosphorylation at […] residue preincubated for 1 hr followed by antibody stimulation by Western blot analysis; format: cell-based
HCT-116 = test: Antiproliferative activity against human HCT-116 cells assessed as cell growth inhibition incubated for 72 hrs by celltiter-glo luminescent cell viability assay; format: functional
SU-DHL10 = test: Antiproliferative activity against human SU-DHL-10 cells assessed as cell growth inhibition incubated for 72 hrs by celltiter-glo luminescent cell viability assay; format: functional
A-431 = test: Antiproliferative activity against human A-431 cells assessed as cell growth inhibition incubated for 72 hrs by celltiter-glo luminescent cell viability assay; format: functional
OCI-Ly7 = test: Antiproliferative activity against human OCILY7 cells assessed as cell growth inhibition incubated for 72 hrs by celltiter-glo luminescent cell viability assay; format: functional
[25] = target: Cytoplasmic tyrosine-protein kinase BMX (Homo sapiens) (UniProt P51813); test: Inhibition of BMX (unknown origin) at 0.3 uM relative to control
[26] = target: Tyrosine-protein kinase ITK/TSK (Homo sapiens) (UniProt Q08881); test: Inhibition of ITK (unknown origin) at 0.3 uM relative to control
SU-DHL-6 [27] = test: Downregulation of CDK2 expression in human SU-DHL-6 cells at 0.3 uM incubated for 24 hrs by Western blot analysis; format: functional, cell-based
[28] = target: T1, Tyrosine-protein kinase Blk; test: Inhibition of BLK (unknown origin) at 0.3 uM relative to control
Target sequence in this assay (P51451 2-505 limits assumed): as above

[29] = Antiproliferative activity against human HBL1 cells assessed as cell growth inhibition incubated for 72 hrs by celltiter-glo luminescent cell viability assay; format: functional
[30] = target: T2, Tyrosine-protein kinase BTK; test: Inhibition of BTK in goat anti-human IgM antibody stimulated human Ramos cells assessed as PLCgamma2 phosphorylation preincubated for 1 hr followed by antibody stimulation by Western blot analysis; format: cell-based
MOLT-4 = test: Antiproliferative activity against human MOLT-4 cells assessed as cell growth inhibition incubated for 72 hrs by celltiter-glo luminescent cell viability assay; format: functional
DOHH-2 [31] = test: Antiproliferative activity against human DOHH-2 cells assessed as cell growth inhibition incubated for 72 hrs by celltiter-glo luminescent cell viability assay; format: functional
A549 = test: Antiproliferative activity against human A549 cells assessed as cell growth inhibition incubated for 72 hrs by celltiter-glo luminescent cell viability assay; format: functional

T2 sequence (Q06187 whole entry, the tested form may be a part): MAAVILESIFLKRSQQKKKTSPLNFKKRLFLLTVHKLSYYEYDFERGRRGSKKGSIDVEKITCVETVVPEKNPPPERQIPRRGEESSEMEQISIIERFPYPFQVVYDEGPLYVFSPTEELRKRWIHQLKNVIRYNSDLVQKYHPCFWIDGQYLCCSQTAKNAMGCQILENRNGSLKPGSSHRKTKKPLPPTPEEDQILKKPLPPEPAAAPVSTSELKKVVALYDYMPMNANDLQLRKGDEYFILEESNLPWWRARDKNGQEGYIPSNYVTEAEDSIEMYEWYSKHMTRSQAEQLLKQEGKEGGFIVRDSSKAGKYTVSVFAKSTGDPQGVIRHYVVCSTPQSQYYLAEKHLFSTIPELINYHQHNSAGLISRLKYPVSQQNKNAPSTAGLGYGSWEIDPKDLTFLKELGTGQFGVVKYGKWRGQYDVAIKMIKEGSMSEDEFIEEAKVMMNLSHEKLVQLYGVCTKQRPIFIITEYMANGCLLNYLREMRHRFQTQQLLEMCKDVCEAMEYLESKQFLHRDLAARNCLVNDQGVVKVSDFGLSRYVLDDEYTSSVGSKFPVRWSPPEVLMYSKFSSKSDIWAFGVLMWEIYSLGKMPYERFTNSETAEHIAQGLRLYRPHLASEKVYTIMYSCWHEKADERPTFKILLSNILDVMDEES
Chain of Tyrosine-protein kinase CSK (Homo sapiens) (P41240 2-450 limits assumed): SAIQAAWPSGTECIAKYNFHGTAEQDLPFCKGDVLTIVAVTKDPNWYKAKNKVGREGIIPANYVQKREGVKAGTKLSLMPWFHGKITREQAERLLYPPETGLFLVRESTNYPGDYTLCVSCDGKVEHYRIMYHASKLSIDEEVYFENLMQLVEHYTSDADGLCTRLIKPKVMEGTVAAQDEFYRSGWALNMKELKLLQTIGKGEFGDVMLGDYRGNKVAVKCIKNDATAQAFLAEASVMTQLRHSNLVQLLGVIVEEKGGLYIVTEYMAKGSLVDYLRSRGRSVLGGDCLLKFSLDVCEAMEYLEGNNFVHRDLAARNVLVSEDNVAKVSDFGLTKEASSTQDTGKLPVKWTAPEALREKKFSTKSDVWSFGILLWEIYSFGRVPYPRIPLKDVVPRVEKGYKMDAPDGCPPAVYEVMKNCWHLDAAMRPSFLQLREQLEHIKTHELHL
Chain of Epidermal growth factor receptor (Homo sapiens) (P00533 whole entry): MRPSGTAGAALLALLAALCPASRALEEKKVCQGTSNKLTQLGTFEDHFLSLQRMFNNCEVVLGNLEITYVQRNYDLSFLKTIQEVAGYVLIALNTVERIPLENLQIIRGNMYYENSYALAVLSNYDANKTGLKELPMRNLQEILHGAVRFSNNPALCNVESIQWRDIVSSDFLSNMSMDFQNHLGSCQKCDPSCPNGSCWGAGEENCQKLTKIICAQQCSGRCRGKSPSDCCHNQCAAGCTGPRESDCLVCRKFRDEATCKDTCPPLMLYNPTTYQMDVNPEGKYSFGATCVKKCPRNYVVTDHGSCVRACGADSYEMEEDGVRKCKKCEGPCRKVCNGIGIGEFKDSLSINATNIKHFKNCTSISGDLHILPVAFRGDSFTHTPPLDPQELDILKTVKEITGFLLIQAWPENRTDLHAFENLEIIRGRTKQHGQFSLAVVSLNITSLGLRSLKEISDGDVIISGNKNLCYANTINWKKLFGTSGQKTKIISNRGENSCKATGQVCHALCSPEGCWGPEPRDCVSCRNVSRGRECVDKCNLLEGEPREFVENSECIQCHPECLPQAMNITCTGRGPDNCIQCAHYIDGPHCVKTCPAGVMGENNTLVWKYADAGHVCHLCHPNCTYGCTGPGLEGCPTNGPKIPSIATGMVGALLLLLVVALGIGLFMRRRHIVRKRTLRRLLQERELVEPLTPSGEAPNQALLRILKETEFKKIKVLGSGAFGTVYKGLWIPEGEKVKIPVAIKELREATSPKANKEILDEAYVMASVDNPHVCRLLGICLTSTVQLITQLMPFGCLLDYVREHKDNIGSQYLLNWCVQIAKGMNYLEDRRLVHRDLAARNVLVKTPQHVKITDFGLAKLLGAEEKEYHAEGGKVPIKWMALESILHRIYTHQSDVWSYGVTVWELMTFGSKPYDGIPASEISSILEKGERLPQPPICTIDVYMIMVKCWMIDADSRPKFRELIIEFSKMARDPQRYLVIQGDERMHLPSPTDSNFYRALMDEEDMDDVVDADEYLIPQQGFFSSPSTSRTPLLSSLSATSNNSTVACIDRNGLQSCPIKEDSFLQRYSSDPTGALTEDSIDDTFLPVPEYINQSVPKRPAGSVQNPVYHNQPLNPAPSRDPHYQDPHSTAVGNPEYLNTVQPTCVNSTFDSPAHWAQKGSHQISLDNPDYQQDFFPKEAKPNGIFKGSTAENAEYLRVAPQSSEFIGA
Chain of Tyrosine-protein kinase Lyn (Homo sapiens) (P07948 2-512 limits assumed): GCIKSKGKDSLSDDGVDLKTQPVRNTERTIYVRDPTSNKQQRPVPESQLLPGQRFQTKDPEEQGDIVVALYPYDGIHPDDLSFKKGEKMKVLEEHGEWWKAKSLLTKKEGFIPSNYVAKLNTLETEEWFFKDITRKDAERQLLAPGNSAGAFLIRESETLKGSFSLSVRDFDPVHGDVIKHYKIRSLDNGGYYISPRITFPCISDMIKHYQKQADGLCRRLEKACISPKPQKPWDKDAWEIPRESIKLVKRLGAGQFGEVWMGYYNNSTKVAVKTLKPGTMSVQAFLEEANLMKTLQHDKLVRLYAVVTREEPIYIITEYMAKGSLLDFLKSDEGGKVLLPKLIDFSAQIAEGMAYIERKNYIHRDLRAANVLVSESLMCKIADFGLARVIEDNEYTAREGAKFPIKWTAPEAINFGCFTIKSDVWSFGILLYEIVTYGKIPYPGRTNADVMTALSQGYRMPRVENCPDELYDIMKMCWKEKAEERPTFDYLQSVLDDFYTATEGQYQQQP
Chain of Tyrosine-protein kinase TXK (Homo sapiens) (P42681 whole entry): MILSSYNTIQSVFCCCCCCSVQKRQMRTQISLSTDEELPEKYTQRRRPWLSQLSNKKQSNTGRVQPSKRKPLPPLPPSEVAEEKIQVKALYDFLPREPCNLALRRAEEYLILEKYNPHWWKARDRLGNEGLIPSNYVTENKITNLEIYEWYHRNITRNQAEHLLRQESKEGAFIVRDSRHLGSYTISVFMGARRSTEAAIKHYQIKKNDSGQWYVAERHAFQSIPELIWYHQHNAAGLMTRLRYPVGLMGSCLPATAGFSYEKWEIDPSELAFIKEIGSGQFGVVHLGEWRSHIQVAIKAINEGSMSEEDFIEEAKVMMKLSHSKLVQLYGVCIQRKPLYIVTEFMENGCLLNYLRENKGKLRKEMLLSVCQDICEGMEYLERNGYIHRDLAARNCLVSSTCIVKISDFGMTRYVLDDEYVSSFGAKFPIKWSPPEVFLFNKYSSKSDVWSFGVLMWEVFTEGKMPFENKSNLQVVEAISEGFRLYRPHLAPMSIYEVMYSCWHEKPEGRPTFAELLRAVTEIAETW
Chain of Mitogen-activated protein kinase 14 (Homo sapiens) (Q16539 whole entry): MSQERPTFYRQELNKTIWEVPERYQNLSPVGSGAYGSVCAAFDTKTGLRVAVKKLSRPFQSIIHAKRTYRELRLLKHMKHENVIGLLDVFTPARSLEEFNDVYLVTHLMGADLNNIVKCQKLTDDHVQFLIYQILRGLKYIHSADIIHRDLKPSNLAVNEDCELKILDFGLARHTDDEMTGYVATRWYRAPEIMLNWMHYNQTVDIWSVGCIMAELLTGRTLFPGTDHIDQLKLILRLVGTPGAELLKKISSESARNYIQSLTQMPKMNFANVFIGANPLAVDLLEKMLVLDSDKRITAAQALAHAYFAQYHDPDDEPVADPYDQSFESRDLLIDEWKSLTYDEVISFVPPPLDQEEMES

## C=CC(=O)N1CCC(Nc2cccc(Nc3ncc(NC(=O)c4cc(NC(=O)c5ccc6cnccc6c5)ccc4C)cn3)c2)CC1
Homo sapiens
  Ratio IC50: 6.6
[1]
  IC50: 0.0088 µM
[2]
  inhibition: > 80%
[3]
  IC50: 0.0055 µM
[4]
  inhibition: > 80%
[5]
  IC50: 0.058 µM
[6]
  inhibition: > 80%

## C=CC(=O)Nc1cccc(Nc2ncc(NC(=O)c3cc(NC(=O)c4ccc5cnccc5c4)ccc3C)cn2)c1
[7]
  IC50: 0.11 µM
[5]
  IC50: 0.056 µM
[8]
  inhibition: Tde

## COc1ccc2cc(C(=O)Nc3ccc(C)c(C(=O)Nc4cnc(Nc5cccc(N)c5)nc4)c3)ccc2c1
[5]
  IC50: 0.0638 µM

## C=CC(=O)Nc1cccc(Nc2ncc(NC(=O)c3cc(NC(=O)c4cccc(C(F)(F)F)c4)ccc3C)cn2)c1
[9]
  inhibition: Active
[1]
  IC50: 0.0188 µM
[3]
  IC50: 0.015 µM
HEK293
  inhibition: Active

## Cc1ccc(NC(=O)c2ccc3cnccc3c2)cc1C(=O)Nc1cnc(Nc2cccc(NC3CCN(C(=O)CF)CC3)c2)nc1
[5]
  IC50: 0.0634 µM

## C=CC(=O)NCCC(=O)Nc1cccc(Nc2ncc(NC(=O)c3cc(NC(=O)c4ccc5cnccc5c4)ccc3C)cn2)c1
[5]
  IC50: 0.388 µM

## Cc1ccc(NC(=O)c2ccc3cnccc3c2)cc1C(=O)Nc1cnc(Nc2cccc(NC3CCN(C(=O)/C=C/CN(C)C)CC3)c2)nc1
[10]
  inhibition: 100%
Jurkat
  GI50: 10.9 µM
[11]
  inhibition: Active
[12]
  Activity: 55%
Homo sapiens
  Ratio IC50: 34.2
[1]
  IC50: 0.0059 µM
[13]
  inhibition: Active
SU-DHL-6 [14]
  GI50: 0.13 µM
TMD8
  GI50: 0.064 µM
SU-DHL-6 [15]
  Activity: Active
[16]
  inhibition: 19%
[17]
  inhibition: 97%
Pfeiffer
  GI50: 2.18 µM
[18]
  inhibition: 83%
[3]
  IC50: 0.012 µM
DOHH-2 [19]
  Activity: Active
[20]
  inhibition: 94%
[21]
  GI50 at 72 h: > 30 µM
[22]
  GI50 at 72 h: > 30 µM
[23]
  inhibition: 19%
MDA-MB-453
  GI50: > 30 µM
A-375
  GI50: > 30 µM
[24]
  EC50: > 1 µM
HCT-116
  GI50: 8.1 µM
SU-DHL10
  GI50: 0.56 µM
A-431
  GI50: > 30 µM
OCI-Ly7
  GI50: 0.02 µM
[25]
  inhibition: 99%
[26]
  inhibition: 5%
[5]
  IC50: 0.202 µM
SU-DHL-6 [27]
  Activity: Active
[28]
  inhibition: 101%
[29]
  GI50: 1.34 µM
[30]
  EC50: > 1 µM
MOLT-4
  GI50: 18.8 µM
DOHH-2 [31]
  GI50: 0.016 µM
A549
  GI50: > 30 µM

## Cc1ccc(NC(=O)c2cccc(-c3ccc(F)nc3)c2)cc1C(=O)Nc1cnc(Nc2cccc(N)c2)nc1
[5]
  IC50: 0.507 µM

## Cc1ccc(NC(=O)c2cccc(-c3ccc(F)cc3)c2)cc1C(=O)Nc1cnc(Nc2cccc(N)c2)nc1
[5]
  IC50: 0.694 µM

## Cc1ccc(NC(=O)c2cccc(-c3ccco3)c2)cc1C(=O)Nc1cnc(Nc2cccc(N)c2)nc1
[5]
  IC50: 0.36 µM

## Cc1ccc(NC(=O)c2ccc3cc4ccccc4cc3c2)cc1C(=O)Nc1cnc(Nc2cccc(N)c2)nc1
[5]
  IC50: 0.319 µM

## Cc1ccc(NC(=O)c2cccc(-c3ccccc3)c2)cc1C(=O)Nc1cnc(Nc2cccc(N)c2)nc1
[5]
  IC50: 0.66 µM

## Cc1ccc(NC(=O)c2cccc(-c3cccnc3)c2)cc1C(=O)Nc1cnc(Nc2cccc(N)c2)nc1
[5]
  IC50: 0.227 µM

## Cc1ccc(NC(=O)c2ccc3cc(O)ccc3c2)cc1C(=O)Nc1cnc(Nc2cccc(N)c2)nc1
[5]
  IC50: 0.212 µM

## Cc1ccc(NC(=O)c2ccc(-c3ccccc3)cc2)cc1C(=O)Nc1cnc(Nc2cccc(N)c2)nc1
[5]
  IC50: 0.255 µM

## Cc1ccc(NC(=O)c2ccc3cc(Br)ccc3c2)cc1C(=O)Nc1cnc(Nc2cccc(N)c2)nc1
[5]
  IC50: 0.145 µM

## Cc1ccc(NC(=O)c2cccc(C(F)(F)F)c2)cc1C(=O)Nc1cnc(Nc2cccc(N)c2)nc1
[5]
  IC50: 0.0421 µM

## Cc1ccc(NC(=O)c2ccc3ncccc3c2)cc1C(=O)Nc1cnc(Nc2cccc(N)c2)nc1
[5]
  IC50: 0.41 µM

## Cc1ccc(NC(=O)CC23CC4CC(CC(C4)C2)C3)cc1C(=O)Nc1cnc(Nc2cccc(N)c2)nc1
[5]
  IC50: 0.338 µM

## Cc1ccc(NC(=O)OCc2ccccc2)cc1C(=O)Nc1cnc(Nc2cccc(N)c2)nc1
[5]
  IC50: 0.445 µM

## Cc1ccc(NC(=O)c2ccc3ccccc3c2)cc1C(=O)Nc1cnc(Nc2cccc(N)c2)nc1
[5]
  IC50: 0.0788 µM

## Cc1ccc(NC(=O)c2ccc3cnccc3c2)cc1C(=O)Nc1cnc(Nc2cccc(N)c2)nc1
[5]
  IC50: 0.407 µM
